We go through 11 compounds from publication PMC12502564, “Evaluation of LLM-generated peptide as foundation template for discovery of effective encrypted AMPs against clinical superbugs” (Microbiology Spectrum, 2025).

In experiment [1] the test system is MRSA 2210187. The class given is cell-based, methicillin-resistant Staphylococcus aureus. How it is done: (§1) The MIC of all peptides was determined using the microdilution broth method in a 96-well plate. Peptides were dissolved in the DMSO with an initial concentration of 12,800 µg mL^−1. And cells of eight strains were separately suspended in the MHB at a density of approximately 10^5 CFU mL^−1. In the first column of the 96-well plate, 16 µL of peptide and 184 µL of MHB were added to each well to achieve a final concentration of 1,024 µg mL^−1. One-hundred microliters of MHB was added to each of the remaining wells. Then the first column of liquid was mixed well and diluted to the 12th column using the twofold dilution method. One-hundred microliters of prepared bacterial solution was added to all wells, and the 96-well plate was incubated at 37°C for 18–24 h. The MIC was defined as the concentration of the peptide in the well just preceding the first well showing visible turbidity. All experiments were performed in triplicate to ensure reliability.

Experiment [2] deals with CRAB 2210186. The class given is cell-based, carbapenem-resistant Acinetobacter baumannii. How it is done:
as §1

Experiment [3] relates to CRAB. As to the kind of experiment: Biofilm formation inhibition assay (crystal violet). The class given is cell-based, carbapenem-resistant Acinetobacter baumannii. Conditions: 1/2 × MIC, 24 h, OD570. How it is done: The crystal violet staining method ([66]) was used to determine the inhibitory activity of the compounds against the biofilm formation of CRAB. The steps were as follows: prepare a bacterial solution (10^6 CFU mL^−1), mix it with different final concentrations of the compound (1/2 × MIC, 1 × MIC, 2 × MIC, and 4 × MIC), and culture it for 24 h. After discarding the supernatant, wash with PBS, add anhydrous methanol to fix the biofilm, and then stain it with crystal violet for 60 min after drying. After washing, dissolve the biofilm with 33% glacial acetic acid, and measure OD570. Three parallel experiments were performed, and the biofilm formation inhibition rate was calculated by the following formula:
(3) Biofilm formation inhibition rate (%)=(1−OD(sample)− OD(blank)/OD(negative)− OD(blank))×100%

Experiment [4] deals with CRAB. As to the kind of experiment: Drug resistance assay, 20 passages. In kind it is cell-based, carbapenem-resistant Acinetobacter baumannii. The following applies: 20 passages at 0.5-fold MIC, n = 3. How it is done: Resistance development assays were performed following previous report ([43]). CRAB was cultured overnight at 37°C at 160 rpm in LB. In wells of a 96-well polypropylene flat-bottom plate, 5 µL of the overnight bacterial culture (10^7 CFU mL^−1) was added to 100 µL of peptides/antibiotic solutions (with final concentrations of 0.25 to 512 µg mL^−1) in MHB. Plates were incubated for 18 to 20 h at 37°C. The MIC, the lowest concentration of peptides/antibiotic that caused lack of visible bacterial growth, was determined for each bacterial species. Thereafter, 5 µL of the growth at the 0.5-fold MIC suspension (10^7 CFU mL^−1) was added to a fresh medium containing peptides/antibiotic, and these mixtures were incubated as described above. This was repeated for 20 passages. All experiments were performed in triplicate to ensure reliability.

The subject of experiment [5] is CRAB 2210186. The experiment in a line: Thigh infection mouse model. The following applies: neutropenic mice, ~1 × 10^6 CFU in thigh, i.p. at 1, 3, 5, 7 h post-infection (PL-15 10 × MIC, 100 µL; polymyxin B 20,000–25,000 U kg^−1 day^−1), n = 8. In kind it is in vivo, BALB/c mice. From the text:
The WHO has classified CRAB as a “Critical Priority” pathogen in its Priority Pathogens List, recognizing it as a predominant causative agent of hospital-acquired infections ([2]). This classification reflects CRAB’s global dissemination, high mortality rates, and extreme resistance profiles. Given this critical situation, a thigh infection model was employed to evaluate the in vivo therapeutic efficacy of PL-15 against CRAB. To establish the mouse thigh infection model, mice were pre-treated intraperitoneally with cyclophosphamide 4 days and 1 day prior to bacterial inoculation to induce neutropenia, administered at doses of 150 mg kg^−1 and 100 mg kg^−1, respectively ([51]). Each mouse was then injected with approximately 10^6 colony-forming unit (CFU) of CRAB in the thigh tissue, followed by four intraperitoneal injections of PL-15, polymyxin B, or phosphate-buffered saline (PBS) within 24 h of infection (Fig. 3a).
All animal experiments were performed according to the “Principles of Laboratory Animal Care” (NIH publication No. 86-23, revised 1985) and approved by the Animal Care and Use Committee of Shandong University (LL20240622, Jinan, China). Five-week-old male BALB/c mice were purchased from Beijing Vital River Laboratory Animal Technology Co., Ltd. (Beijing, China) and kept under a 12-hour light/12-hour dark cycle, humidity of 50%, and temperature of 22°C in standard specific pathogen-free individually vented cages.
To establish the mouse thigh infection model, mice were injected intraperitoneally with cyclophosphamide 4 d and 1 d before bacterial administration, at concentrations of 150 and 100 mg kg^−1, respectively, to induce neutropenia ([51]). CRAB 2210186 cells were suspended in sterile PBS, adjusted to a concentration of ~1 × 10^6 CFU per infection site and injected into the right thighs of eight mice per treatment group. PL-15 (10 × MIC, 100 µL), polymyxin B (20,000–25,000 U kg^−1 day^−1) or PBS were administered intraperitoneally at 1, 3, 5, and 7 h post-infection. Mice were euthanized 24 h after infection, and the thigh tissues were aseptically collected, weighed, homogenized, serially diluted in PBS, and plated onto solid MCA. The CFU of CRAB 2210186 per thigh was calculated by plating dilutions of the thigh homogenates (0.25 g of thigh tissue in 10 mL sterile PBS) on agar plates and counting colonies.

In experiment [6] the test system is CRAB. As to the kind of experiment: Time-kill curve. Conditions: ~10^5 CFU mL^−1 in MH broth. In kind it is cell-based, carbapenem-resistant Acinetobacter baumannii. How it is done: (§2) Bacteria in the logarithmic growth phase were diluted to approximately 10^5 CFU mL^−1 in MH broth and treated with peptides, polymyxin B, or vancomycin at final concentrations of 1/2 × MIC, 1 × MIC, 2 × MIC, and 4 × MIC. After the addition of the test compound, samples were taken at 0, 3, 6, 9, 12, and 24 h and serially diluted. Subsequently, 5 µL of the diluted samples were spread on agar plates and incubated at 37°C for 20 h. The bacterial concentration CFU mL^−1 at the corresponding time point of each sample was calculated based on the number of colonies on the agar plate, and the log10 (CFU mL^−1) was plotted against time (h).

The test system of experiment [7] is CRAB. The experiment in a line: PI assay, cytoplasmic membrane integrity. The class given is cell-based, carbapenem-resistant Acinetobacter baumannii. The following applies: 10 × MIC, 10^8 CFU mL^−1. How it is done: PI (which is known to stain nuclear chromatin upon cell membrane disruption) assay was carried out to evaluate the ability of AMPs to disrupt the cytoplasmic membrane integrity ([63]). After CRAB was grown to the exponential phase, bacteria cells were harvested and washed three times in washing buffer of 5 mM glucose and 5 mM HEPES (1:1, pH = 7.2) and then re-adjusted to 10^8 CFU mL^−1 in the same buffer. Bacterial suspensions (150 µL/well) were loaded into black-walled, clear-bottom 96-well plates with lids. Following bacterial loading, 50 µL of 10 µM PI was introduced into each well, with 30 min pre-incubation CRAB. Post-incubation fluorescence signals were acquired using 535 nm excitation and 617 nm emission wavelengths. Compounds (10 µL) were then administered to achieve 1 × MIC/10 × MIC-equivalent final concentrations in the dye-loaded bacterial suspensions. Real-time fluorescence monitoring was performed with continuous acquisition during the first 10 min, followed by measurements at 10-min intervals. Negative controls received 10 µL sterile water in lieu of antimicrobial peptides while maintaining equivalent pre-incubation conditions. All experimental conditions were executed with three biological replicates.

Experiment [8] has as its system MRSA. As to the kind of experiment: Time-kill curve. The class given is cell-based, methicillin-resistant Staphylococcus aureus. The following applies: ~10^5 CFU mL^−1 in MH broth. How it is done:
as §2

On the set-up of experiment [9]: method as in earlier work. Conditions: cited from earlier work.
The subject of experiment [10] is CRAB. More on the design: method as in earlier work. Conditions: in vitro; cited from earlier work. From the text:
Using this validated AMP as a template, we performed sequence alignment with the National Center for Biotechnology Information (NCBI) database to identify encrypted AMPs.

Experiment [11] relates to all eight bacterial strains. In kind it is cell-based, gram-positive and gram-negative bacteria. How it is done:
as §1

Experiment [12] deals with CRKP 2403276. In kind it is cell-based, carbapenem-resistant K. pneumoniae. How it is done:
as §1

Experiment [13] concerns CRPA 2403282. In kind it is cell-based, carbapenem-resistant P. aeruginosa. How it is done:
as §1

The subject of experiment [14] is E. coli ATCC25922. In kind it is cell-based, Escherichia coli. Here is the method: as §1
Experiment [15] concerns A. baumannii ATCC19606. The class given is cell-based, Acinetobacter baumannii. How it is done:
as §1

Experiment [16] deals with S. aureus ATCC25923. In kind it is cell-based, Staphylococcus aureus. How it is done: as §1
The mark [17] stands for this setting: MHB, ~10^5 CFU mL^−1, 37°C, 18–24 h, triplicate.

Read-outs that look alike come from different tables or passages of the source. No end group written: not given here.

Regarding GVIKSVLKGVAKTVALGML-NH2 [B2RP-Era], the MIC entry in experiment [1] (2210187) and in experiment [2] was “below 8 µg mL^−1” in each case.
In the case of GIGKFLKKAKKFGKAFVKILKK-NH2 [pexiganan], the MIC result in experiment [1] (setting [17]) and in experiment [2] was “below 8 µg mL^−1” throughout.
For the compound polymyxin B [reference compound], the biofilm formation inhibition entry in experiment [3] is “moderate biofilm inhibition”. Besides, the “MIC change after serial passaging” value in experiment [4] was 64 fold. The “reduction of bacterial load compared to the PBS control group” value in experiment [5] (24 h) is “two orders of magnitude”. For the same compound, the “bacteria eradicated in the thigh tissue within 24 h” value in experiment [5] is “over 97%”. Also, the “time to complete bacterial eradication of CRAB” value in experiment [6] (2 × MIC) was 6 h. The “time to kill CRAB” value in experiment [6] (4 × MIC) is reported as no more than 3 h. Also, in [7], the “PI fluorescence (cytoplasmic membrane integrity)” value is on record as “strongest fluorescence response”.
With “LKLSPKTKDTLKKVLKGAIKGAIAIASMA-NH2 [hymenochirin-1Pa]”, the MIC entry in [1] (2210187) and in experiment [2] was “below 8 µg mL^−1” throughout.
As to `CN[C@H](CC(C)C)C(=O)N[C@H]1C(=O)N[C@@H](CC(N)=O)C(=O)N[C@H]2C(=O)N[C@H]3C(=O)N[C@H](C(=O)N[C@H](C(=O)O)c4cc(O)cc(O)c4-c4cc3ccc4O)[C@H](O)c3ccc(c(Cl)c3)Oc3cc2cc(c3O[C@@H]2O[C@H](CO)[C@@H](O)[C@H](O)[C@H]2O[C@H]2C[C@](C)(N)[C@H](O)[C@H](C)O2)Oc2ccc(cc2Cl)[C@H]1O` [vancomycin, reference compound], the “time to complete bacterial eradication of MRSA” value in experiment [8] (1 × MIC) is listed as no more than 6 h. The “time to full bacterial killing of MRSA” value in experiment [8] (2 × MIC) and in experiment [8] (4 × MIC) was no more than 3 h in each case.
As to GIWKTIKSMGKVFAGKILQNL-NH2 [[D4K]B2RP], the MIC entry in [1] (2210187) and in experiment [2] was “below 8 µg mL^−1” in each case.
With GLGSLLGKAFKIGLKTVGKMMGGAPREQ [CPF-B1], the MIC entry in experiment [1] (setting [17]) and in experiment [2] (setting [17]) was “below 8 µg mL^−1” each time.
On to “WLKKILKWLKW [g_AMP41, short peptide … generated by AMPGenix, used as template]”, for which the “efficacy in treating infections in vivo” value in [9] is “suboptimal efficacy”. Also, the MIC in experiment [10] is 8 mg/L.
For the compound WLKKILAWLKKKW [BR-13], the “MIC for all tested bacteria” value in [11] is no more than 64 mg/L. The antimicrobial spectrum entry in experiment [11] (judged from MICs on eight strains) is reported as “broad-spectrum antimicrobial properties”. The MIC entry is “lower than 11 µg mL^−1” in [12]; 3.33 mg/L in experiment [1] (2210187); 64 mg/L in [13]; “lower than 11 µg mL^−1” in experiment [14]; “lower than 11 µg mL^−1” in experiment [15]; 18.67 mg/L in experiment [2]. For the same compound, the MIC entry in experiment [16] is “lower than 11 µg mL^−1”.
For the compound “ILGKLLKTAAKLLSNL [[S7K,G11K]alyteserin-2a]”, the MIC result in experiment [1] (2210187) and in experiment [2] (setting [17]) was “below 8 µg mL^−1” each time.
GLLKPLLKIAAKVGSNLL-NH2 [[G4K]XT-7]: the MIC result in experiment [1] (2210187) and in experiment [2] was “below 8 µg mL^−1” in each case.
